In patent US20230248723A1, “PYRROLO[2,3-B]PYRAZINE COMPOUNDS AS CCCDNA INHIBITORS FOR THE TREATMENT OF HEPATITIS B VIRUS (HBV) INFECTION” (Hoffmann-La Roche Inc., priority 2017, published 2023):
Where two headings read alike, the source gives them in different places.

Legend:
cccDNA = cccDNA assay (digital PCR), HBV-infected PHH; assay type: cell-based
Description: Fresh primary human hepatocytes (PXB-PHH) harvested from humanized mice (uPA/SCID mice)—herein called PHH—were obtained from PhoenixBio Co., Ltd (Japan). Cells were seeded on a collagen I-coated plate at the following cell density: 35,000 cells/well (384-well), 70,000 cells/well (96-well), or, 400,000 cells/well (24-well) in modified hepatocyte clonal growth medium (dHCGM). dHCGM is a DMEM medium containing 100 U/ml Penicillin, 100 μg/ml Streptomycin, 20 mM Hopes, 44 mM NaHCO3, 15 μg/ml L-proline, 0.25 μg/ml insulin, 50 nM Dexamethazone, 5 ng/ml EGF, 0.1 mM Asc-2P, 2% DMSO and 10% FBS (Ishida et al., 2015). Cells were cultured at 37° C. incubator in a humidified atmosphere with 5% CO2. Culture medium was replaced 24 h post-plating and every 2 days until harvest.
Following 4 day of maturation with 1 μM MB-1, HLC were incubated with HBV (purified from CHB individuals) at multiplicity of infection (MOI) 10-40 without PEG for 24 hr; virus inoculum was removed the following day. HBV infection in PHH was performed at MOI 40+4% PEG. Compound treatment in HLC and PHH was started at day 3 post infection. Compound (in powder) was dissolved in DMSO; the final concentration of DMSO added to cells is 1%. Fresh compound was replenished every 2 day until cells were harvested at day 10 (PHH), or day 14 (HLC). Compound effect on HBV and cellular toxicity was measured by multiplex assay (HBsAg, HBeAg, albumin), branched DNA (pgRNA), or digital PCR (cccDNA) and depicted as % of inhibition compared to DMSO control. Graphs were prepared using Spotfire software.
HBV-infected cells (in 384- or 96-well plate) were lysed with Cells-to-CT Lysis Reagents according to manufacturer's instruction (Thermo Scientific). To remove excess of RC-DNA, samples were digested with T5 exonuclease (10 U) (New England Biolabs), at 37° C. for 1 hr; enzyme was inactivated by heating the samples at 80° C. for 15 min. DNA samples (1.2 μl) were added into the digital PCR Master Mix (QuantStudio Digital PCR Kit, Thermo Scientific) containing cccDNA primers 5′-[…] (forward), 5′-[…] (reverse), and […] (probe) (Werle-Lapostolle et al., 2004) in a total volume 5 μl, and loaded into dPCR array using AccuFill System (AB). Each sample was loaded into 4 subarrays/256 through-holes. Digital PCR assay was run on QuantStudio 12K Flex (AB) and data was analyzed by Digital Suite Software (AB).

HBV DNA = HBV DNA in culture medium of HBV-infected PHH; assay type: cell-based; conditions: Hepatitis B virus
From the text: FIG. 8: Establishment of dPCR assay for cccDNA quantification. […] A 3.2-kb, linearized plasmid HBV is used as a standard curve for relative quantification of HBV DNA by TaqMan-PCR. […] (B) Testing primer & PCR specificity and removal of excess RC-DNA. In contrast to TaqMan-PCR (relative quantification method), digital PCR (dPCR) is an absolute quantification method without the need of standard curve. […] First step—Testing primer and PCR specificity. Serum-derived HBV (contains RC-DNA, devoid of cccDNA) was used as a DNA template for dPCR using 2 sets of primers (for HBV core and cccDNA region) (Werle-Lapostolle et al., 2004). Samples were amplified by dPCR on QuantStudio 12K Flex Real-Time PCR System (AB); 4 subarrays (256 through-holes) were used for each sample. […] Second step—Removal of excess RC-DNA. PHH seeded in 96-well were infected with HBV. At day 6 pi, cell lysates were digested with Plasmid safe, ATP-dependent, DNAse (PSAD), T5 exonuclease, or, T5 exonuclease followed by EcoRI, for 1 hr at 37° C. Samples were amplified by dPCR using cccDNA primers on QuantStudio 12K Flex Real-Time PCR System (AB); 4 subarrays (256 through-holes) were used for each sample. […] Fresh medium and compound was replenished every 2 day. At day 10 pi, culture media were harvested and measured for HBV DNA, HBsAg, and HBeAg. Albumin was used as a surrogate of in vitro tox marker. Cells were lysed and treated with T5 exonuclease, cccDNA was then measured by dPCR on QuantStudio 12K Flex Real-Time PCR System (AB); 4 subarrays (256 through-holes) were used for each sample. […] Cells were treated with compounds at the indicated concentrations starting from day 3 post infection (patient-derived HBV, GT D). Fresh medium and compound was replenished every 2 day. Cells were harvested at day 10 pi; viral markers and albumin were measured from culture medium.
HBV from sera of CHB individuals were purified using OptiPrep™ (Axis-Shield, Norway) density gradient. Briefly, OptiPrep™ stock solution (60%) was diluted to 50% and 10% in PBS; equal volume of each solution was then added into SW41 tubes (BD Biosciences). Linear gradient was performed by placing the tubes on Gradient Master 108™ (Biocomp) at setting: 800, 25 rpm for 30″. Two hundred microliter (200 μl) of serum was overlaid on the top of gradient and samples were centrifuged at 100,000×g for 2 hours at 4° C. […] Fractions containing the peak of HBV DNA were pooled and used as virus inoculum for all infection experiments. All fractions were stored at −80° C. until used.
Fresh primary human hepatocytes (PXB-PHH) harvested from humanized mice (uPA/SCID mice)—herein called PHH—were obtained from PhoenixBio Co., Ltd (Japan).

Question: How did the IC50 (cccDNA; Hepatitis B virus, 240 h, patient-derived HBV GT A, MOI 40, day 10 pi, read-out: cccDNA IC50 (μM) Median) turn out when `O=C(NC(CO)CO)c1c[nH]c2ncc(C3CC3)nc12` [compound 7] was run?
Answer: Its IC50 is 7.15 µM.

Question: And the IC50 (cccDNA; Hepatitis B virus, 240 h, patient-derived HBV GT B, MOI 40, day 10 pi, read-out: cccDNA IC50 (μM) Median)?
Answer: The IC50 was 6.56 µM.

Question: What about the IC50 (cccDNA; Hepatitis B virus, 240 h, patient-derived HBV GT C, MOI 40, day 10 pi, read-out: cccDNA IC50 (μM) Median) of the same compound?
Answer: The IC50 was 6.2 µM.

Question: What about the IC50 (cccDNA; Hepatitis B virus, 240 h, patient-derived HBV GT D, MOI 40, day 10 pi (Table 5), read-out: cccDNA IC50 (μM) Median) of the same compound?
Answer: The IC50 was 6.69 µM.

Question: And the IC50 (cccDNA; Hepatitis B virus, HepG2.2.15-derived HBV GT D, MOI 40, read-out: cccDNA IC50 (μM) Median)?
Answer: Its IC50 is 25 µM.

Question: What about the IC50 (cccDNA; Hepatitis B virus, HepG2.2.15-derived HBV GT D, MOI 125, read-out: cccDNA IC50 (μM) Median) of the same compound?
Answer: The IC50 was 25.2 µM.

Question: What about the IC50 (cccDNA; Hepatitis B virus, patient-derived HBV (GT D), read-out: cccDNA IC50 (μM) Median) of the same compound?
Answer: Its IC50 is less than 10 µM.

Question: What about the IC50 (cccDNA; Hepatitis B virus, patient-derived HBV GT A-D, read-out: cccDNA IC50s) of the same compound?
Answer: The IC50 was 6.2 to 7.15 µM.

Question: And the IC50 (cccDNA; Hepatitis B virus, patient-derived HBV GT D, MOI 40 (Table 6), read-out: cccDNA IC50 (μM) Median)?
Answer: Its IC50 is 6.41 µM.

Question: What about the IC50 (cccDNA; Hepatitis B virus, patient-derived HBV GT D, MOI 125, read-out: cccDNA IC50 (μM) Median) of the same compound?
Answer: The IC50 was 6.78 µM.

Question: What about the IC50 (cccDNA; patient-derived HBV (GT D), read-out: cccDNA IC50 (μM) Median) of the same compound?
Answer: Its IC50 is 6.76 µM.

Question: What about the IC50 (HBV DNA; 240 h, read-out: HBV DNA IC50 (μM) Median, PHH, patient-derived HBV GT A, MOI 40, day 10 pi) of the same compound?
Answer: The IC50 was 0.025 µM.

Question: And the IC50 (HBV DNA; 240 h, read-out: HBV DNA IC50 (μM) Median, PHH, patient-derived HBV GT B, MOI 40, day 10 pi)?
Answer: Its IC50 is 0.023 µM.

Question: What about the IC50 (HBV DNA; 240 h, read-out: HBV DNA IC50 (μM) Median, PHH, patient-derived HBV GT C, MOI 40, day 10 pi) of the same compound?
Answer: Its IC50 is 0.02 µM.

Question: And the IC50 (HBV DNA; 240 h, read-out: HBV DNA IC50 (μM) Median, PHH, patient-derived HBV GT D, MOI 40, day 10 pi (Table 5))?
Answer: Its IC50 is 0.023 µM.

Question: And the IC50 (HBV DNA; read-out: HBV DNA IC50s, PHH, patient-derived HBV GT A-D)?
Answer: The IC50 was 0.02 to 0.025 µM.
